{"source": "patent US6670373B1", "about": "“Compounds and method for inhibiting MRP1” (Eli Lilly and Company, priority 1999, dated 2003)", "key": {"MDR1": {"biological_target": "T1, MDR1 (Homo sapiens, UniProt P08183)", "T1 construct": "HL60/Adr and HL60/Vinc are continuous cell lines, which were selected for doxorubicin and vincristine resistance respectively; endogenous in cells; host or cells: HL60/Vinc (vincristine-selected variant of human HL60)", "T1 sequence (P08183 whole entry)": "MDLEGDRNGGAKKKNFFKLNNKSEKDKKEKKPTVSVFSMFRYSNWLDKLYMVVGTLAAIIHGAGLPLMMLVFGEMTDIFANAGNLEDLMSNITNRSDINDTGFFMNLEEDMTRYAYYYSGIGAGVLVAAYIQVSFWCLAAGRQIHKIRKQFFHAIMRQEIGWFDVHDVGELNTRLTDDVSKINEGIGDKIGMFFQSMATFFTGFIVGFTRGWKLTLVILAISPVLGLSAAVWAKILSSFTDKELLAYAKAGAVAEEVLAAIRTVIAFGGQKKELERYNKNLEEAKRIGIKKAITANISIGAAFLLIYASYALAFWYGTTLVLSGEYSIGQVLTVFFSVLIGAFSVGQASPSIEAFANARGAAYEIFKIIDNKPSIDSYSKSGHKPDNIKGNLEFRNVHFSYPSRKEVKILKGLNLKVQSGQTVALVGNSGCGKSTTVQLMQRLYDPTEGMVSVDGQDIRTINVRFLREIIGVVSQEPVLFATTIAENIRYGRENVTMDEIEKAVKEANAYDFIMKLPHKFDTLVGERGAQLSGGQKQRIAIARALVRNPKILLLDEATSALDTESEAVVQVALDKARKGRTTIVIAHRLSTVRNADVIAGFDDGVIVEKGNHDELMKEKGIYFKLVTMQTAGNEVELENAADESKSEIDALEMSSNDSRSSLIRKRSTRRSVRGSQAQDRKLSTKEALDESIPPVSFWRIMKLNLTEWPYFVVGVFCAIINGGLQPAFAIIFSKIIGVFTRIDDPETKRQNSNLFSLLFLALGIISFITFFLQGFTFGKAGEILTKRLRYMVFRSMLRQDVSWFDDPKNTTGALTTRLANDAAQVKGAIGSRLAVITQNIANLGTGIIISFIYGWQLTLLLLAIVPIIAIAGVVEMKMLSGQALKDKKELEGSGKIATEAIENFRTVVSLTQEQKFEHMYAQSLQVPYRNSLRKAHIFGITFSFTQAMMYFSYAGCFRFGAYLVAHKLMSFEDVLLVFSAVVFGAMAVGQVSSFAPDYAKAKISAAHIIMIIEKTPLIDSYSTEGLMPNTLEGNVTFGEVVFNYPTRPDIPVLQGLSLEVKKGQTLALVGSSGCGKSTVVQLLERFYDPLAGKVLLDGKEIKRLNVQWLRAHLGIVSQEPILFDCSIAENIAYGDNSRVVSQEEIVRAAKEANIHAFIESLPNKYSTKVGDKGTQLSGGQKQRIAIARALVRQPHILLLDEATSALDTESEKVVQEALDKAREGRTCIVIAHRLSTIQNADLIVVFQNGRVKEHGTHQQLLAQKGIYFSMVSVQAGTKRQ", "experiment": "Reversal of MDR1-mediated vincristine resistance in HL60/Vinc cells (alamarBlue cell growth)", "format": "cell-based", "settings": "oncolytic alone at the tested concentration", "description": "(§1) The biological activity of the compounds of the present invention was evaluated employing an initial screening assay which rapidly and accurately measured the activity of the tested compound in inhibiting MRP1 or MDR1. Assays useful for evaluating this reversing capability are well known in the art. See, e.g., T. McGrath, et al., Biochemical Pharmacology, 38:3611, 1989; D. Marquardt and M. S. Center, Cancer Research, 52:3157, 1992; D. Marquardt, et al., Cancer Research, 50:1426, 1990; and Cole, et. al., Cancer Research, 54: 5902-5910, 1994.\n(§2) Assay for Reversal of MRP1-Mediated Doxorubicin Resistance and MDR1-Mediated Vincristine Resistance: HL60/Adr and HL60/Vinc are continuous cell lines, which were selected for doxorubicin and vincristine resistance respectively by culturing HL60, a human acute myeloblastic leukemia cell line, in increasing concentrations of doxorubicin or vincristine until a highly resistant variant was attained.\n(§3) HL60/Adr and HL60/Vinc cells were grown in RPMI 1640 (Gibco) containing 10% fetal bovine serum (FBS) and 50 μg/ml GENTAMICIN™ (Sigma). Cells were harvested; washed twice with assay medium (same as culture media); counted; and diluted to 1×10^5 cells/ml in assay medium. One hundred microliters of cells were aliquoted into wells of a 96 well tissue culture plate. […]"}, "MRP1": {"biological_target": "T2, MRP1 (Homo sapiens, UniProt P33527)", "T2 construct": "HL60/Adr and HL60/Vinc are continuous cell lines, which were selected for doxorubicin and vincristine resistance respectively; endogenous in cells; host or cells: HL60/Adr (doxorubicin-selected variant of human HL60)", "T2 sequence (P33527 whole entry)": "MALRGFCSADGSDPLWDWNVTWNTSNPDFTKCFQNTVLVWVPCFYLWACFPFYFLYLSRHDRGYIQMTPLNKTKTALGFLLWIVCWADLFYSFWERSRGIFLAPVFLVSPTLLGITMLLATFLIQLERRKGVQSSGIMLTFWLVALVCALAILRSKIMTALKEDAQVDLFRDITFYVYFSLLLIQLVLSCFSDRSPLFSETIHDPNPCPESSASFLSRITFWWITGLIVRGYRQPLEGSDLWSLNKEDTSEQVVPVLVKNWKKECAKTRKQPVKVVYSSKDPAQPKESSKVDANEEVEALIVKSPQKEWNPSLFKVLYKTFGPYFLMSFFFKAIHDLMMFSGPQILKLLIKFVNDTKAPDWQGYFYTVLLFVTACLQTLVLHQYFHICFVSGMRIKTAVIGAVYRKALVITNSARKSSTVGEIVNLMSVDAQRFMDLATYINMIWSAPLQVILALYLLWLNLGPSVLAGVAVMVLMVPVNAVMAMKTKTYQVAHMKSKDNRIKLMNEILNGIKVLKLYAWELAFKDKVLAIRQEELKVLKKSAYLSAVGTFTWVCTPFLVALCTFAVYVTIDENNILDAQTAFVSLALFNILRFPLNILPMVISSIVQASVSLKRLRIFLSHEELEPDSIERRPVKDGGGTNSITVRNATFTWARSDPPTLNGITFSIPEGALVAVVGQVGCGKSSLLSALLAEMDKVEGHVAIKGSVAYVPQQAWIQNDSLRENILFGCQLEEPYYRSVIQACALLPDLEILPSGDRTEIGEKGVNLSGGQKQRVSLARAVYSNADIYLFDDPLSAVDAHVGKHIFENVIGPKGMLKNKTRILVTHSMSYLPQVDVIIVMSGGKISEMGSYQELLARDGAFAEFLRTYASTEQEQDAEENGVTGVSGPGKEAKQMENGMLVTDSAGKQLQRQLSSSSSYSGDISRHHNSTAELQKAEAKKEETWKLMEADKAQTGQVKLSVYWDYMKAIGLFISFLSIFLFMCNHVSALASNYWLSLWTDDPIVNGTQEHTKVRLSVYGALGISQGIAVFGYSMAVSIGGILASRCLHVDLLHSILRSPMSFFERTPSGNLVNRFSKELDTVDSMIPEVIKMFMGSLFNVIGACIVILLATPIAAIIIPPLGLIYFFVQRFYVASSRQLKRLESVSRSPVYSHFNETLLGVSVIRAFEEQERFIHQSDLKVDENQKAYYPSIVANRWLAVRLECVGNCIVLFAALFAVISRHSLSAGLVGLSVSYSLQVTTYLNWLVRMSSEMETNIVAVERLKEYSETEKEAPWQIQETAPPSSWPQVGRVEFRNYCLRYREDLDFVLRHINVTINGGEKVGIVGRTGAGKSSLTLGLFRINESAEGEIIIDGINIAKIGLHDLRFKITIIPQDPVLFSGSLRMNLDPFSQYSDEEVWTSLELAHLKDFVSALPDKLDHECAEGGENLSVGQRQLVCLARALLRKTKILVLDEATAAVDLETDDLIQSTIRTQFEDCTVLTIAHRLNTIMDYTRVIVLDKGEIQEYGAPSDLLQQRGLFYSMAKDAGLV", "experiment": "Reversal of MRP1-mediated doxorubicin resistance in HL60/Adr cells (alamarBlue cell growth)", "format": "cell-based", "settings": "oncolytic alone at the tested concentration", "description": "as §1, §2, §3"}}, "data": [{"molecule": "COc1cccc2c1C(=O)c1c(O)c3c(c(O)c1C2=O)C[C@@](O)(C(=O)CO)C[C@@H]3O[C@H]1C[C@H](N)[C@H](O)[C@H](C)O1", "note": "[doxorubicin]", "values": [{"measurement": "inhibition of cell growth by the oncolytic alone", "setting": "MDR1", "value": "minimally inhibits"}, {"measurement": "inhibition of cell growth by the oncolytic alone", "setting": "MRP1", "value": "minimally inhibits"}]}]}
